pEC50: −log10 of the molar value. Read-outs that look alike come from different tables or passages of the source.
Tests used:
5HT2B receptors = target: T1, 5HT2B receptors (Homo sapiens, UniProt P41595); assay: Human 5-HT2B functional assay in CHO-K1 cells (calcium flux, FLIPR); format: cell-based; conditions: for EC50: CHO-K1 cells over-expressing 5HT2B, calcium flux, read-out: EC50 (μM), 5-HT2B Agonist Activity
T1 construct: expressed in transfected cells; host or cells: CHO-K1 cells
In short: (§1)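 Frozen CHO-K1 cells over-expressing receptor, serum-starved overnight, loaded with Ca4 dye plus 2.5 mM probenecid for 60 min at room temperature. FLIPR fluorescence (ex 480/em 530 nm, 25° C) recorded 3 min after compound addition; 6-point 1:10 series from 10 μM, 0.2% DMSO. Response normalized to serotonin, 4-parameter fit gives EC50; Emax as % of serotonin.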

5HT2C receptors = target: T2, 5HT2C receptors (Homo sapiens, UniProt P28335); assay: Human 5-HT2C functional assay in CHO-K1 cells (calcium flux, FLIPR); format: cell-based; parameters: expressed in transfected cells; host or cells: CHO-K1 cells; conditions: for EC50: CHO-K1 cells over-expressing 5HT2C, calcium flux, read-out: EC50 (μM), 5-HT2c Agonist Activity
T2 sequence (P28335 33-458): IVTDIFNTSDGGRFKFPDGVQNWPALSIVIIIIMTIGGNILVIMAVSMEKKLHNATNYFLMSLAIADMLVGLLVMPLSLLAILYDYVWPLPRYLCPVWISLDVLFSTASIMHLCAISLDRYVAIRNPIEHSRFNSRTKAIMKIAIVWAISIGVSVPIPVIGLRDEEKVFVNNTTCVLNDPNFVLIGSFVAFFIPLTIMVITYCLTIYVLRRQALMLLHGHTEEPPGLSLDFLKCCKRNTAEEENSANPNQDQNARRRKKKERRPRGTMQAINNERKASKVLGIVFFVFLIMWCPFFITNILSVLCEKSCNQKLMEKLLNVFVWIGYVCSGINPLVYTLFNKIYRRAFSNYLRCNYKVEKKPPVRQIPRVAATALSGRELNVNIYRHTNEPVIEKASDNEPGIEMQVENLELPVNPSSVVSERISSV
In short: as §1

[1] = CHO-K1, read-out: Emax (%), 5-HT2B Agonist Activity
[2] = CHO-K1, read-out: Emax (%), 5-HT2c Agonist Activity, CHO-K1 cells, percentage relative to the effect of serotonin
[3] = CHO-K1 cells, percentage relative to the effect of serotonin, read-out: Emax (%), 5-HT2B Agonist Activity
[4] = CHO-K1 cells, percentage relative to the effect of serotonin, read-out: Emax (%), 5-HT2c Agonist Activity

T1 sequence (P41595 whole entry): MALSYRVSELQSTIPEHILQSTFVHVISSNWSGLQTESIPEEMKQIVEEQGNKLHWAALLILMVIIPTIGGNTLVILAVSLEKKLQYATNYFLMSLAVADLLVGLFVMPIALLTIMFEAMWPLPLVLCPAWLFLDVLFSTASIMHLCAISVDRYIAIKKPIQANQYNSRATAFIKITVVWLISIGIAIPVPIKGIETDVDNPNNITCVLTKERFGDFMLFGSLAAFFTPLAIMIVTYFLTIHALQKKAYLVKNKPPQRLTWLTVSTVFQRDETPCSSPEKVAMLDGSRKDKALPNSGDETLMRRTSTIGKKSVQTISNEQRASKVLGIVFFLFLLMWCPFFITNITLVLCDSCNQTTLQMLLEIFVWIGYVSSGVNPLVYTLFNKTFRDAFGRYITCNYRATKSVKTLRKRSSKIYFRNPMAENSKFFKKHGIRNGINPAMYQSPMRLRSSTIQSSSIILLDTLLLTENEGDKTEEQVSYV

Row | Structure (SMILES) | pEC50 (5HT2B receptors) | pEC50 (5HT2C receptors) | Emax (5HT2C receptors; [2]) | EC50 (5HT2B receptors) | EC50 (5HT2C receptors) | Emax (5HT2C receptors; [4]) | also measured
1 | CCc1ccc2c(c1)N1CCNC[C@@H]1CCO2 [Example 211, (4aS)-10-ethyl-2,3,4,4a,5,6-hexahydro-1H-pyrazino[2,1-d][1,5]benzoxazepine] | 7.40 | 7.70 | 70% | – | – | – | Emax (5HT2B receptors; [1]): 45%
2 | c1ccc(CCc2ccc3c(c2)N2CCNC[C@@H]2CCO3)cc1 [Example 212, (4aS)-10-(2-phenylethyl)-2,3,4,4a,5,6-hexahydro-1H-pyrazino[2,1-d][1,5]benzoxazepine] | – | – | – | 0.4 µM | 0.007 µM | 80% | Emax (5HT2B receptors; [3]): 45%
3 | CC(C)Cc1ccc2c(c1)N1CCNC[C@@H]1CCO2 [Example 213, (4aS)-10-isobutyl-2,3,4,4a,5,6-hexahydro-1H-pyrazino[2,1-d][1,5]benzoxazepine] | – | – | – | 1 µM | 0.03 µM | 120% | Emax (5HT2B receptors; [3]): 25%
4 | Clc1cc2c(cc1Cl)N1CCNC[C@@H]1CCO2 [Example 214, (4aS)-9,10-dichloro-2,3,4,4a,5,6-hexahydro-1H-pyrazino[2,1-d][1,5]benzoxazepine] | 7.52 | 8.70 | > 120% | – | – | – | Emax (5HT2B receptors; [1]): 60%
5 | FC(F)(F)c1cccc2c1OCC[C@H]1CNCCN21 [Example 215, (4aS)-8-(trifluoromethyl)-2,3,4,4a,5,6-hexahydro-1H-pyrazino[2,1-d][1,5]benzoxazepine] | – | – | – | > 10 µM | 0.003 µM | 110% | –
6 | FC(F)(F)c1ccc2c(c1)OCC[C@H]1CNCCN21 [Example 216, (4aS)-9-(trifluoromethyl)-2,3,4,4a,5,6-hexahydro-1H-pyrazino[2,1-d][1,5]benzoxazepine] | – | – | – | > 10 µM | 0.07 µM | 55% | –
7 | FC(F)(F)c1ccc2c(c1)N1CCNC[C@@H]1CCO2 [Example 217, (4aS)-10-(trifluoromethyl)-2,3,4,4a,5,6-hexahydro-1H-pyrazino[2,1-d][1,5]benzoxazepine] | – | – | – | 0.09 µM | 0.01 µM | 100% | Emax (5HT2B receptors; [3]): 70%
8 | Fc1ccc2c(c1F)OCC[C@H]1CNCCN21 [Example 218, (4aS)-8,9-difluoro-2,3,4,4a,5,6-hexahydro-1H-pyrazino[2,1-d][1,5]benzoxazepine] | 7.15 | 8.70 | 100% | – | – | – | Emax (5HT2B receptors; [1]): 20%
9 | CN1CCN2c3ccc(Cl)cc3OCC[C@H]2C1 [Example 220, (4aS)-9-chloro-3-methyl-2,3,4,4a,5,6-hexahydro-1H-pyrazino[2,1-d][1,5]benzoxazepine] | < 5.00 | 7.40 | 40% | – | – | – | –
10 | CN1CCN2c3cc(-c4cccc(S(C)(=O)=O)c4)ccc3OCC[C@H]2C1 [Example 221, (4aS)-3-methyl-10-[3-(methylsulfonyl)phenyl]-2,3,4,4a,5,6-hexahydro-1H-pyrazino[2,1-d][1,5]benzoxazepine] | – | – | – | > 10 µM | 0.1 µM | 50% | –
11 | CC(O)c1cccc(-c2ccc3c(c2)N2CCNC[C@@H]2CCO3)c1 (stereo partly drawn) [Example 222, 1-{3-[(4aS)-2,3,4,4a,5,6-hexahydro-1H-pyrazino[2,1-d][1,5]benzoxazepin-10-yl]phenyl}ethanol] | – | – | – | 0.4 µM | 0.0008 µM | 100% | Emax (5HT2B receptors; [3]): 50%
12 | c1ccc(-c2cccc3c2OCC[C@H]2CNCCN32)cc1 [Example 223, (4aS)-8-phenyl-2,3,4,4a,5,6-hexahydro-1H-pyrazino[2,1-d][1,5]benzoxazepine] | – | – | – | > 10 µM | 0.02 µM | 100% | –
13 | c1cc(-c2ccc3c(c2)N2CCNC[C@@H]2CCO3)co1 [Example 224, (4aS)-10-(3-furyl)-2,3,4,4a,5,6-hexahydro-1H-pyrazino[2,1-d][1,5]benzoxazepine] | – | – | – | 0.4 µM | 0.1 µM | 85% | Emax (5HT2B receptors; [3]): 40%
14 | Clc1cc(Cl)c2c(c1)N1CCNC[C@@H]1CCO2 [Example 225, (4aS)-8,10-dichloro-2,3,4,4a,5,6-hexahydro-1H-pyrazino[2,1-d][1,5]benzoxazepine] | 7.40 | 8.00 | 70% | – | – | – | Emax (5HT2B receptors; [1]): 50%
15 | Cc1cc(Cl)cc2c1OCC[C@H]1CNCCN21 [Example 227, (4aS)-10-chloro-8-methyl-2,3,4,4a,5,6-hexahydro-1H-pyrazino[2,1-d][1,5]benzoxazepine] | 7.30 | 8.10 | 85% | – | – | – | Emax (5HT2B receptors; [1]): 20%
16 | CC(O)c1ccc(-c2ccc3c(c2)OCC[C@H]2CNCCN32)cc1 (stereo partly drawn) [Example 228, 1-{4-[(4aS)-2,3,4,4a,5,6-hexahydro-1H-pyrazino[2,1-d][1,5]benzoxazepin-9-yl]phenyl}ethanol] | – | – | – | > 10 µM | 0.009 µM | 100% | –
17 | CC(O)c1cccc(-c2ccc3c(c2)OCC[C@H]2CNCCN32)c1 (stereo partly drawn) [Example 229, 1-{3-[(4aS)-2,3,4,4a,5,6-hexahydro-1H-pyrazino[2,1-d][1,5]benzoxazepin-9-yl]phenyl}ethanol] | – | – | – | > 10 µM | 0.02 µM | 100% | –
18 | CS(=O)(=O)c1ccc(-c2ccc3c(c2)OCC[C@H]2CNCCN32)cc1 [Example 230, (4aS)-9-[4-(methylsulfonyl)phenyl]-2,3,4,4a,5,6-hexahydro-1H-pyrazino[2,1-d][1,5]benzoxazepine] | – | – | – | > 10 µM | 0.07 µM | 90% | –
19 | COc1ccc2c(c1)OCC[C@H]1CN(C)CCN21 [Example 232, (4aS)-9-methoxy-3-methyl-2,3,4,4a,5,6-hexahydro-1H-pyrazino[2,1-d][1,5]benzoxazepine] | < 5.00 | 7.30 | 50% | – | – | – | –
20 | CC(O)c1cccc(-c2cccc3c2OCC[C@H]2CNCCN32)c1 (stereo partly drawn) [Example 233, 1-{3-[(4aS)-2,3,4,4a,5,6-hexahydro-1H-pyrazino[2,1-d][1,5]benzoxazepin-8-yl]phenyl}ethanol] | – | – | – | > 10 µM | 0.003 µM | 105% | –
21 | CC(O)c1ccc(-c2cccc3c2OCC[C@H]2CNCCN32)cc1 (stereo partly drawn) [Example 234, 1-{4-[(4aS)-2,3,4,4a,5,6-hexahydro-1H-pyrazino[2,1-d][1,5]benzoxazepin-8-yl]phenyl}ethanol] | – | – | – | 0.3 µM | 0.01 µM | 105% | Emax (5HT2B receptors; [3]): 10%
22 | CCN1CCN2c3ccccc3OCC[C@H]2C1 [Example 235, (4aS)-3-ethyl-2,3,4,4a,5,6-hexahydro-1H-pyrazino[2,1-d][1,5]benzoxazepine] | < 5.00 | 7.70 | 100% | – | – | – | –
23 | Brc1cccc2c1OCC[C@H]1CNCCN21 [Example 236, (4aS)-8-bromo-2,3,4,4a,5,6-hexahydro-1H-pyrazino[2,1-d][1,5]benzoxazepine] | 8.00 | 8.70 | 100% | – | – | – | Emax (5HT2B receptors; [1]): 10%
24 | CCc1cccc2c1OCC[C@H]1CNCCN21 [Example 237, (4aS)-8-ethyl-2,3,4,4a,5,6-hexahydro-1H-pyrazino[2,1-d][1,5]benzoxazepine] | < 5.00 | 8.30 | 90% | – | – | – | –
25 | CS(=O)(=O)c1cccc(-c2ccc3c(c2)OCC[C@H]2CNCCN32)c1 [Example 238, (4aS)-9-[3-(methylsulfonyl)phenyl]-2,3,4,4a,5,6-hexahydro-1H-pyrazino[2,1-d][1,5]benzoxazepine] | – | – | – | > 10 µM | 0.3 µM | 90% | –
26 | CS(=O)(=O)c1cccc(-c2cccc3c2OCC[C@H]2CNCCN32)c1 [Example 239, (4aS)-8-[3-(methylsulfonyl)phenyl]-2,3,4,4a,5,6-hexahydro-1H-pyrazino[2,1-d][1,5]benzoxazepine] | – | – | – | > 10 µM | 0.04 µM | 105% | –
27 | FCCN1CCN2c3ccccc3OCC[C@H]2C1 [Example 240, (4aS)-3-(2-fluoroethyl)-2,3,4,4a,5,6-hexahydro-1H-pyrazino[2,1-d][1,5]benzoxazepine] | – | – | – | 1 µM | 0.04 µM | – | Emax (5HT2B receptors; [1]): 10%; Emax (5HT2C receptors; CHO-K1, read-out: Emax (%), 5-HT2c Agonist Activity): 90%
28 | COc1cccc2c1OCC[C@H]1CNCCN21 [Example 241, (4aS)-8-methoxy-2,3,4,4a,5,6-hexahydro-1H-pyrazino[2,1-d][1,5]benzoxazepine] | < 5.00 | 7.70 | 90% | – | – | – | –
29 | Cc1cccc2c1OCC[C@H]1CN(C)CCN21 [Example 242, (4aS)-3,8-dimethyl-2,3,4,4a,5,6-hexahydro-1H-pyrazino[2,1-d][1,5]benzoxazepine] | < 5.00 | 8.70 | 80% | – | – | – | –
30 | COc1ccc2c(c1)OCC[C@H]1CNCCN21 [Example 243, (4aS)-9-methoxy-2,3,4,4a,5,6-hexahydro-1H-pyrazino[2,1-d][1,5]benzoxazepine] | < 5.00 | 7.30 | – | – | – | – | Emax (%), 5-HT2c Agonist Activity (5HT2C receptors; CHO-K1 cells, percentage relative to the effect of serotonin): 55%

— patent US8546377B2 (AbbVie Inc., priority 2009, dated 2013)
